From ChEMBL document CHEMBL4507281, “Data for DCP probe BI-4394” (2021)

Experiments:
Settings in all cases: Compound concentration 10.0 uM
[1] = target: Ribosomal protein S6 kinase alpha-3 (Homo sapiens) (UniProt P51812)
[2] = target: AMP-activated protein kinase (AMPK) alpha-1/beta-1/gamma-1 (Homo sapiens) (UniProt P54619+Q9Y478+Q13131)
[3] = target: T1, Phosphorylase b kinase regulatory subunit alpha, liver isoform (Homo sapiens) (UniProt P46019)
T1 sequence (whole entry): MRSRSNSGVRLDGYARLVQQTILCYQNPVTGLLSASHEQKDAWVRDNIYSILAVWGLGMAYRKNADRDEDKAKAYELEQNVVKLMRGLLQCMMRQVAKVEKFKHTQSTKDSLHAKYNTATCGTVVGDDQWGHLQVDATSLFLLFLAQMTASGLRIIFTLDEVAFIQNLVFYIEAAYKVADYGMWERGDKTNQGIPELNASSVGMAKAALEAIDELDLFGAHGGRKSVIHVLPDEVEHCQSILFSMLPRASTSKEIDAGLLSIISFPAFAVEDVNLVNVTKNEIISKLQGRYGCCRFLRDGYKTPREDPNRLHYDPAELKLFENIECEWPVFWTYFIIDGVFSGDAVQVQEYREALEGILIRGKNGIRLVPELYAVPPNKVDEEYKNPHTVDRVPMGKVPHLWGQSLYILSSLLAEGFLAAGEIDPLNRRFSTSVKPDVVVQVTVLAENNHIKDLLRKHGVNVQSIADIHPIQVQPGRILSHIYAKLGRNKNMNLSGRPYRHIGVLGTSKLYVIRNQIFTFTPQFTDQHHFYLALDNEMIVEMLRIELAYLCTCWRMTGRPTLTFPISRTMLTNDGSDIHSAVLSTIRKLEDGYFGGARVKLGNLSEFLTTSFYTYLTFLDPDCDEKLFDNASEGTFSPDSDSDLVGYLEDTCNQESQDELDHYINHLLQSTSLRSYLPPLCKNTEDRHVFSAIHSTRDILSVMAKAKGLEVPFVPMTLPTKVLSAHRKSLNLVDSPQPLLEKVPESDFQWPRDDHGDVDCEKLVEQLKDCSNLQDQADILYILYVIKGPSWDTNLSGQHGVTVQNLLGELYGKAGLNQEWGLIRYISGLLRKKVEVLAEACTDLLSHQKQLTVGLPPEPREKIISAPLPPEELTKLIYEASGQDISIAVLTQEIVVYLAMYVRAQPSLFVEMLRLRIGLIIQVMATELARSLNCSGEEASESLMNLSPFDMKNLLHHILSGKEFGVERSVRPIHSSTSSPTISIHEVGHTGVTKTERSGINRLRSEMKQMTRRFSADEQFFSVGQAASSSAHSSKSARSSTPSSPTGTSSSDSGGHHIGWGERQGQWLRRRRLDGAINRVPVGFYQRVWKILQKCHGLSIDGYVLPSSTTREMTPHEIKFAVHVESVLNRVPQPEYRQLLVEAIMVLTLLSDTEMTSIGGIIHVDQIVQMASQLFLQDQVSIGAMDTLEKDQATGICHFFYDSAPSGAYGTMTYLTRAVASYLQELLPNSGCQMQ

[4] = target: Insulin receptor (Homo sapiens) (UniProt P06213)
Sequence of Insulin receptor (Homo sapiens) (P06213 28-758 limits assumed): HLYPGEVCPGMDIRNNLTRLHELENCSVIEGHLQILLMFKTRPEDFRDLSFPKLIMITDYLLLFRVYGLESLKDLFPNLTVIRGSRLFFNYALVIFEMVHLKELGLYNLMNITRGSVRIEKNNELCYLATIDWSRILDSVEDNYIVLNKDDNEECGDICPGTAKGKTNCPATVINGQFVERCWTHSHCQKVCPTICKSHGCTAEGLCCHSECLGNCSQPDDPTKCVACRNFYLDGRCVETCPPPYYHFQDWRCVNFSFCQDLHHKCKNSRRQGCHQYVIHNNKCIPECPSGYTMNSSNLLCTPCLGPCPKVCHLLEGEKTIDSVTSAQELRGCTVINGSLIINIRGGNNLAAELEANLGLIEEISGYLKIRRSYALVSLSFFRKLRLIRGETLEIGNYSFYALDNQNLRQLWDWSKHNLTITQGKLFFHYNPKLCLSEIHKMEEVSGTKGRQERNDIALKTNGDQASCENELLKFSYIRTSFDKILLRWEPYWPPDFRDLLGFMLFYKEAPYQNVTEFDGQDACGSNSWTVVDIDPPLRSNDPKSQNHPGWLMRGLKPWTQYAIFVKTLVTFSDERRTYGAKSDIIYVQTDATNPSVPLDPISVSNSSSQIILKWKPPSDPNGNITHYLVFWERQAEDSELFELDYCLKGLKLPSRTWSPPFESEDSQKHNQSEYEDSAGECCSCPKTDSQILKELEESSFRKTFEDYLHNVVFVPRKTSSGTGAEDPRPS
Sequence of Insulin receptor (Homo sapiens) (P06213 763-1382 limits assumed): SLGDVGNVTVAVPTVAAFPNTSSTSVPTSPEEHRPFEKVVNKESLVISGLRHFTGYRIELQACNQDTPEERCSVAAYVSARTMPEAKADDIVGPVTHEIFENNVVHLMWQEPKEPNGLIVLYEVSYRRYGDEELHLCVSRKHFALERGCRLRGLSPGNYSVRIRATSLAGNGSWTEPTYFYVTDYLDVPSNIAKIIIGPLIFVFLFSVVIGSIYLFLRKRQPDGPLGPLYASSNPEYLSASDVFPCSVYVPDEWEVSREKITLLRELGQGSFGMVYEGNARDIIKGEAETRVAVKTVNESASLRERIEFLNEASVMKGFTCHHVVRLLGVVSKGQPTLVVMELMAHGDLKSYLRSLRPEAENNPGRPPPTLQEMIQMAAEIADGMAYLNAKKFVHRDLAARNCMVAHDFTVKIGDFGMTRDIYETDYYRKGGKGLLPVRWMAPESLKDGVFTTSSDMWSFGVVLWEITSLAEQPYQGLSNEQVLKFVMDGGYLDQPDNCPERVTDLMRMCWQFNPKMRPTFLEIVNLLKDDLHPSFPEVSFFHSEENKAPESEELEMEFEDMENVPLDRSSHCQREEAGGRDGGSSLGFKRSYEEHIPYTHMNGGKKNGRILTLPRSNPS

[5] = target: Mitogen-activated protein kinase 1 (Homo sapiens) (UniProt P28482)
Sequence of Mitogen-activated protein kinase 1 (Homo sapiens) (P28482 whole entry): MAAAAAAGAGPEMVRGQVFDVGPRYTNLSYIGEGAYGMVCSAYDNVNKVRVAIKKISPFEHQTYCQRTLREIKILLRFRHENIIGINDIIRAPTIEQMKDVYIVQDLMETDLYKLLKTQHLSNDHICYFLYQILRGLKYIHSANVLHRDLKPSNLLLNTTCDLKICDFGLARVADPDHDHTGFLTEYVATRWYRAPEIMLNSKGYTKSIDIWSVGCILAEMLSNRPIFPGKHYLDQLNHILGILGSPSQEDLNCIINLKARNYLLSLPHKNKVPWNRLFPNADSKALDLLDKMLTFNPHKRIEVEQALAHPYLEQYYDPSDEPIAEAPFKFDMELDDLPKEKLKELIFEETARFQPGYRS

[6] = target: Ribosomal protein S6 kinase beta-1 (Homo sapiens) (UniProt P23443)
Sequence of Ribosomal protein S6 kinase beta-1 (Homo sapiens) (P23443 whole entry, looked up): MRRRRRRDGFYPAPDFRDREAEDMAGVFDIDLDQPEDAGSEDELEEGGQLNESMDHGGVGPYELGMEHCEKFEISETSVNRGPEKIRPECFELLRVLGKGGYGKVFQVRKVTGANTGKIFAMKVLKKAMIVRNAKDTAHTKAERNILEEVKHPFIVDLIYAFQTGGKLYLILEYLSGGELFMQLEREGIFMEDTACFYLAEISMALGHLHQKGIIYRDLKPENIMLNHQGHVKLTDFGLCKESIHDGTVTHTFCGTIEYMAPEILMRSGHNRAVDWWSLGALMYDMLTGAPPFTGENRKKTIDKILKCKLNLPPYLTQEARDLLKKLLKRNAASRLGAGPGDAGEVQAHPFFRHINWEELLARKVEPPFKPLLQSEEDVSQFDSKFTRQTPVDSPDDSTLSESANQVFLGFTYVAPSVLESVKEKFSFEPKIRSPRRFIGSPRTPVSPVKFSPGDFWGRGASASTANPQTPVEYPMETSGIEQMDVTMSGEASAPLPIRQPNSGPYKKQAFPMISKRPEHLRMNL

[7] = target: T2, Tyrosine-protein kinase JAK3 (Homo sapiens) (UniProt P52333)
T2 sequence (whole entry): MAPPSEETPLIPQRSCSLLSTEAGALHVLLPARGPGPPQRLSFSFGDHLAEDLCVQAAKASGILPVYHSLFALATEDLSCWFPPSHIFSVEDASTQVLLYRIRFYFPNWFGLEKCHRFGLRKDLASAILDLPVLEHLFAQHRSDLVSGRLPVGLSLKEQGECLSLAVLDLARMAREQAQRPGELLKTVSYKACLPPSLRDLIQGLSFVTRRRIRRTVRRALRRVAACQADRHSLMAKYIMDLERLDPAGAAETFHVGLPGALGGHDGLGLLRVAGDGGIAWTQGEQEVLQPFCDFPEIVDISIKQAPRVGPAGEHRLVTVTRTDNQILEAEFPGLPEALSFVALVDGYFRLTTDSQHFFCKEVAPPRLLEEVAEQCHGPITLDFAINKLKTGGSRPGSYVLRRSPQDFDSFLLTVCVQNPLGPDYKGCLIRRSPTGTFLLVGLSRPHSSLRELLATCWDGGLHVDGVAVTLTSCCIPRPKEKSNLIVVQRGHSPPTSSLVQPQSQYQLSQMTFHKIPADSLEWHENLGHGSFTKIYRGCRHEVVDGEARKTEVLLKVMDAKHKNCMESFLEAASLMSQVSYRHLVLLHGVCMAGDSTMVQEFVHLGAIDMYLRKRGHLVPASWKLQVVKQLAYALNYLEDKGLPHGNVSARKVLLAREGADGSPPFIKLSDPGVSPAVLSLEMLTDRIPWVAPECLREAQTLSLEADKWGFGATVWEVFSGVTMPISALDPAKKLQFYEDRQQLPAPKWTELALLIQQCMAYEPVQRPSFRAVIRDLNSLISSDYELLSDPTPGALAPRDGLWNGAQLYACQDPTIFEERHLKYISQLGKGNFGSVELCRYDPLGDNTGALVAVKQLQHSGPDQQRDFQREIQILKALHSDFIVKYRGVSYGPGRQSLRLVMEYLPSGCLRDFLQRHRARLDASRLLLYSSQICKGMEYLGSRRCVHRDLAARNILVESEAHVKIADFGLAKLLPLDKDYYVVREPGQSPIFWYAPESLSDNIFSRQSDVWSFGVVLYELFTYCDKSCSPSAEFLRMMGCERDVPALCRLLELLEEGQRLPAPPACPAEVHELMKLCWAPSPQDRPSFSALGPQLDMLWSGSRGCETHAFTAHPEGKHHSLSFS

[8] = target: Cyclin-dependent kinase 1/cyclin B (Homo sapiens) (UniProt P06493+P14635+Q8WWL7+O95067)

Measured: residual activity

Sequence of AMP-activated protein kinase (AMPK) alpha-1/beta-1/gamma-1 (Homo sapiens) (P54619 whole entry, canonical isoform): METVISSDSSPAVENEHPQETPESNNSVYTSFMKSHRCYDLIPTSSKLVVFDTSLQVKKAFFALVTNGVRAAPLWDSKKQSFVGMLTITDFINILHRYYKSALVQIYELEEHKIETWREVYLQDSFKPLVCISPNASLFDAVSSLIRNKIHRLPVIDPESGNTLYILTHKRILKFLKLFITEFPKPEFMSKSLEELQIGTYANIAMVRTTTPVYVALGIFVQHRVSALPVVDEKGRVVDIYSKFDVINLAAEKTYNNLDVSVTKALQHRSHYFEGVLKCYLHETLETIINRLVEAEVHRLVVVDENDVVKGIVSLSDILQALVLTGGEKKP
Sequence of AMP-activated protein kinase (AMPK) alpha-1/beta-1/gamma-1 (Homo sapiens) (Q13131 whole entry partner, canonical isoform): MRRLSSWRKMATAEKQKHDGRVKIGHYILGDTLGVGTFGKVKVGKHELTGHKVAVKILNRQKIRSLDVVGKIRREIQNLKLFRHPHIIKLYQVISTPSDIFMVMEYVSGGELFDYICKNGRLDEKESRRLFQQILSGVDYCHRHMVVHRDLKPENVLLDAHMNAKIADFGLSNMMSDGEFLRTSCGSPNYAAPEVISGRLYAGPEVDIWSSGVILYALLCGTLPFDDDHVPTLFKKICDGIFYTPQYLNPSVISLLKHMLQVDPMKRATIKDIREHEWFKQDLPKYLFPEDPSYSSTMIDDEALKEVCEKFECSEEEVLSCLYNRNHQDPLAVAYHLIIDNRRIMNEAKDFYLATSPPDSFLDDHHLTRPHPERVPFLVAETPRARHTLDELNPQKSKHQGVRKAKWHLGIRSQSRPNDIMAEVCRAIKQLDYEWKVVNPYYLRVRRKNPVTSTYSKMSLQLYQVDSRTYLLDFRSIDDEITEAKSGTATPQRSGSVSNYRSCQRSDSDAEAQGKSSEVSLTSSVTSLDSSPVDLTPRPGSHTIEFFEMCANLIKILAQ
Sequence of AMP-activated protein kinase (AMPK) alpha-1/beta-1/gamma-1 (Homo sapiens) (Q9Y478 2-270 partner limits assumed): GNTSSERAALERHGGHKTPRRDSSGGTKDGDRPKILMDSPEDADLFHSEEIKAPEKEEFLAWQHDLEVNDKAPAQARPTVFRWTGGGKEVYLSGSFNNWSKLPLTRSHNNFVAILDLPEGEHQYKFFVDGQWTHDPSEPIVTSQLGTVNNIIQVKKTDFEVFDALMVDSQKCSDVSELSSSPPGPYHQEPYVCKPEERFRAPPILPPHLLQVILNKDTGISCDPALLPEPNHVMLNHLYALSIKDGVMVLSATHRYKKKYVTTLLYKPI
Sequence of Ribosomal protein S6 kinase alpha-3 (Homo sapiens) (P51812 whole entry): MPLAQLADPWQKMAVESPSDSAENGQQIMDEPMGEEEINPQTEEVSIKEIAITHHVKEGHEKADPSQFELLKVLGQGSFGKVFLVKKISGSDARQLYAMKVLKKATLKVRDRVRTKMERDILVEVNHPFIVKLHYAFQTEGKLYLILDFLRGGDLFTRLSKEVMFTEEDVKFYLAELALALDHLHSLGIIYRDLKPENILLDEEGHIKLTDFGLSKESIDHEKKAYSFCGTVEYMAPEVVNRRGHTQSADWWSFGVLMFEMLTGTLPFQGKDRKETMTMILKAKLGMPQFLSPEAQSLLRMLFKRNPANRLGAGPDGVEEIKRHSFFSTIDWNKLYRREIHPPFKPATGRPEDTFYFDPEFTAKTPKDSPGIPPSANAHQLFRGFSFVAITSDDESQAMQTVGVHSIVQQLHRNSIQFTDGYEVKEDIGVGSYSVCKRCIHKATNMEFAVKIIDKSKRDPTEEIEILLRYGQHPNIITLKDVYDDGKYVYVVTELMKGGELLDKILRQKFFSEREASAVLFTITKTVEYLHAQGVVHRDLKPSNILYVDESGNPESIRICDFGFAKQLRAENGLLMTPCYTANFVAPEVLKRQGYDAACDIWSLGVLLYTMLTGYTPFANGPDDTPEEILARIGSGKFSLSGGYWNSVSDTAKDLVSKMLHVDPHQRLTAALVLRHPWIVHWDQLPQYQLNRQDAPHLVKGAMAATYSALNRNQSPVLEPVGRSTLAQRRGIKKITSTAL

CCOC(=O)c1cc2cc(-c3cc(C(=O)NCc4ccc(C(=O)O)cc4)nn3C)ccc2[nH]1 [BI 4394]
active: [1] 5% | [2] 8% | [7] 44%
inactive: [3] 82% | [4] 98% | [5] 84% | [6] 89% | [8] 88%
